Experimental data reported in ChEMBL document CHEMBL1201862, “PubChem BioAssay data set” (2004).
Active and inactive are the calls of the source. For most assays here, no stated cut-off is given here; in the data, actives have a measured EC50 and inactives only a lower limit.

Experiments:
[1] = luciferase reporter signal suppression in cells – H4 neuroglioma cells, luminescence, dose response (AID 1990); format: functional, cell-based
[2] = Luminescence Cell-Based Dose Response HTS to Identify Inhibitors of 5'UTR Stem-Loop Driven Prion Protein mRNA Translation in H4 Neuroglioblastoma Cells. [Related pubchem assays: 1827 (Project Summary), 1813 (Primary HTS)]; format: functional
[3] = alpha-synuclein stem-loop luciferase translation blockers – H4 neuroglioma cells, luminescence, confirmation (AID 1988); format: functional, cell-based
[4] = target: Glyceraldehyde-3-phosphate dehydrogenase (Homo sapiens, UniProt P04406)
Sequence of Glyceraldehyde-3-phosphate dehydrogenase (P04406 whole entry): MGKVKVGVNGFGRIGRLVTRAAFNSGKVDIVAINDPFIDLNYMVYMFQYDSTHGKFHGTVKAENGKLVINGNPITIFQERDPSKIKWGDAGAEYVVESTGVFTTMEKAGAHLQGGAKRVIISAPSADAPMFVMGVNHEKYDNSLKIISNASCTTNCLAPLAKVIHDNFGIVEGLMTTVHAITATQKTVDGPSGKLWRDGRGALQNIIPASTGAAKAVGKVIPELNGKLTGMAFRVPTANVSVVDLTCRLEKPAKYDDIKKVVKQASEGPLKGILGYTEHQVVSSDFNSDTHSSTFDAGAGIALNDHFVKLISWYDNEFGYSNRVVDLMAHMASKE

Compound	EC50 [1]	EC50 [2]	EC50 [3]	IC50 [4]
CC(NC(=O)COC(=O)c1ccc2c(c1)S(=O)(=O)N=C1CCCCCN12)C12CC3CC(CC(C3)C1)C2 (stereo not given)	> 120 µM (not active)	> 120 µM (not active)	15.5 µM (active)	–
O=C(CCc1nnc(-c2ccc(-c3ccccc3)cc2)o1)NCCc1ccccn1	–	21.4 µM (active)	–	–
Cc1onc(-c2ccccc2Cl)c1C(=O)NC(=S)Nc1ccc(C(C)(C)C)cc1	> 120 µM (not active)	> 120 µM (not active)	107 µM (active)	–
Cc1c(CCC(=O)N2CCC[C@H]2C(=O)O)c(=O)oc2c(C)c3oc4c(c3cc12)CCCC4	15.9 µM (active)	16.2 µM (active)	14 µM (active)	–
COc1cccc(-n2nc3c(S)nnc(C)c3c2C)c1	16.2 µM (active)	> 120 µM (not active)	> 120 µM (not active)	–
COc1ccc(Cl)cc1S(=O)(=O)Nc1cnc2ccccc2c1	–	–	–	> 10 µM (inconclusive)
Cc1ccc(CNc2cc(-c3nn4c(C)nnc4s3)ccc2C)s1	9.69 µM (active)	56.1 µM (active)	22.5 µM (active)	–
COc1cccc(/C=N/NC(=O)N/N=C/c2cccc(OC)c2O)c1O	15.5 µM (active)	> 120 µM (not active)	9.36 µM (active)	–
